# Data reported in patent publication US10464925B2, “Methods to induce targeted protein degradation through bifunctional molecules” (Dana-Farber Cancer Institute, Inc., priority 2015, dated 2019).
# Like-named read-outs stand apart in the source and are kept apart here.
# Key:
# [1] = molecular target: T1, BRD4 adjoined to nanoluciferase (Nluc) (Homo sapiens, UniProt O60885+Q96SW2); experiment: BRD4 Dual Luciferase Assay; format: cell-based; details: for Emax: BRD4 remaining at Emax, read-out: BRD4− Emax (percent remaining);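 on all read-outs here: transduced reporter cells exposed to compound for 4 h, then Nluc and Fluc luminescence read, each normalized to DMSO controls and expressed as Nluc/Fluc ratio per well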
# T1 construct: expressed in transfected cells
# [2] = test system: 797; experiment: Cell viability, 797 cells (Table 4); format: cell-based; details: read-out: IC50 (nM) 797
# [3] = molecular target: T2, CRBN-DDB1 (Homo sapiens, UniProt Q96SW2); experiment: CRBN-DDB1 Ligand-Displacement AlphaScreen Assay (thalidomide competition); format: binding; details: read-out: CRBN alpha IC50;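 further: streptavidin donor and nickel chelate acceptor bead proximity signal after 30 min incubation, normalized with no-protein background as 0% and DMSO wells as 100% activity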
# T2 construct: 6xHis (given for the complex); made in house; host or cells: Sf9 cells (Invitrogen), pFastBac
# [4] = read-out: BRD4 max degradation(%) Dual Luciferase
# [5] = 4 hours, read-out: max degradation (dual luc)
"Dmax [1, 4] [%]",IC50 [3] [nM],SMILES,IC50 [2] [nM],also measured
21,–,Cc1sc2c(c1C)C(c1ccc(Cl)cc1)=N[C@@H](CC(=O)NCCCCCCCCOc1cccc3c1C(=O)N(C1CCC(=O)NC1=O)C3=O)c1nnc(C)n1-2 (some centres unmarked) [dBET21],630,Emax [1]: 78.1%
< 10,–,Cc1sc2c(c1C)C(c1ccc(Cl)cc1)=N[C@@H](CC(=O)NCCOCCOCCOc1cccc3c1C(=O)N(C1CCC(=O)NC1=O)C3=O)c1nnc(C)n1-2 (some centres unmarked) [dBET40],299,–
–,–,COc1cc(C(=O)NCCCCNC(=O)COc2cccc3c2C(=O)N(C2CCC(=O)NC2=O)C3=O)ccc1Nc1ccc2c(n1)N(C1CCCC1)[C@H](C)C(=O)N2C (some centres unmarked) [dBET16],4900,–
–,–,Cc1sc2c(c1C)C(c1ccc(Cl)cc1)=N[C@@H](CC(=O)NCc1ccc(CNC(=O)COc3cccc4c3C(=O)N(C3CCC(=O)NC3=O)C4=O)cc1)c1nnc(C)n1-2 (some centres unmarked) [dBET41],726,–
–,–,COc1cc(C(=O)NCCCCCCCCNC(=O)COc2cccc3c2C(=O)N(C2CCC(=O)NC2=O)C3=O)ccc1Nc1ccc2c(n1)N(C1CCCC1)[C@H](C)C(=O)N2C (some centres unmarked) [dBET45],3450,–
–,> 50000,"C[C@]1(N2C(=O)c3cccc(OCC(=O)O)c3C2=O)CCC(=O)NC1=O [Compound D-55, (S)-2-((2-(3-methyl-2,6-dioxopiperidin-3-yl)-1,3-dioxoisoindolin-4-yl)oxy)acetic acid]",–,–
–,–,COc1cc(C(=O)NCCCOCCOCCOCCCNC(=O)COc2cccc3c2C(=O)N(C2CCC(=O)NC2=O)C3=O)ccc1Nc1ccc2c(n1)N(C1CCCC1)[C@H](C)C(=O)N2C (some centres unmarked) [dBET46],9450,–
–,140,"CC(C)(C)OC(=O)NCCNc1cccc2c1C(=O)N(C1CCC(=O)NC1=O)C2=O [Compound D-29, tert-butyl (2-((2-(2,6-dioxopiperidin-3-yl)-1,3-dioxoisoindolin-4-yl)amino)ethyl)carbamate]",–,–
10,–,Cc1sc2c(c1C)C(c1ccc(Cl)cc1)=N[C@@H](CC(=O)NCCCCC(=O)Nc1cccc3c1CN(C1CCC(=O)NC1=O)C3=O)c1nnc(C)n1-2 (some centres unmarked) [dBET42],7720,"Dmax [1, 5]: 10%"
–,–,Cc1c(C(=O)NCCCCCCCCNC(=O)COc2cccc3c2C(=O)N(C2CCC(=O)NC2=O)C3=O)sc2c1C(c1ccc(Cl)cc1)=N[C@@H](CC(=O)NCCCN1CCN(C)CC1)c1nnc(C)n1-2 (some centres unmarked) [dBET31],–,Emax [1]: 45.6%
46,–,Cc1sc2c(c1C)C(c1ccc(Cl)cc1)=N[C@@H](CC(=O)NCCCCCC(=O)NCc1cccc3c1C(=O)N(C1CCC(=O)NC1=O)C3=O)c1nnc(C)n1-2 (some centres unmarked) [dBET37],1020,"Dmax [1, 5]: 46.4%"
19,–,Cc1sc2c(c1C)C(c1ccc(Cl)cc1)=N[C@@H](CC(=O)NCCCCCCOc1cccc3c1C(=O)N(C1CCC(=O)NC1=O)C3=O)c1nnc(C)n1-2 (some centres unmarked) [dBET29],–,"Conc@Emax [1]: 0.05 µM; Dmax [1, 5]: 19%; Emax [1]: 75.5%"
–,259,CCOc1cccc2c1C(=O)N(C1CCC(=O)NC1=O)C2=O [Compound D-60],–,–
–,21.4,"O=C1CCC(N2C(=O)c3ccc(NC(=O)CCl)cc3C2=O)C(=O)N1 [Compound D-32, 2-chloro-N-(2-(2,6-dioxopiperidin-3-yl)-1,3-dioxoisoindolin-5-yl)acetamide]",–,–
–,715,O=C1CCC(N2C(=O)c3ccc(Br)cc3C2=O)C(=O)N1 [Compound D-58],–,–
–,> 50000,"C[C@@]1(N2C(=O)c3cccc(OCC(=O)O)c3C2=O)CCC(=O)NC1=O [Compound D-54, (R)-2-((2-(3-methyl-2,6-dioxopiperidin-3-yl)-1,3-dioxoisoindolin-4-yl)oxy)acetic acid]",–,–
–,1170,"O=C1CCC(N2C(=O)c3c(Cl)ccc(Cl)c3C2=O)C(=O)N1 [Compound D-51, 4,7-dichloro-2-(2,6-dioxopiperidin-3-yl)isoindoline-1,3-dione]",–,–
< 10,–,Cc1sc2c(c1C)C(c1ccc(Cl)cc1)=N[C@@H](CC(=O)NCCCCCCCC(=O)Nc1cccc3c1CN(C1CCC(=O)NC1=O)C3=O)c1nnc(C)n1-2 (some centres unmarked) [dBET44],719,–
50,–,Cc1sc2c(c1C)C(c1ccc(Cl)cc1)=N[C@@H](CC(=O)NCCOCCOCCNC(=O)COc1cccc3c1C(=O)N(C1CCC(=O)NC1=O)C3=O)c1nnc(C)n1-2 (some centres unmarked) [dBET24],–,"Conc@Emax [1]: 5 µM; Dmax [1, 5]: 50.4%; Emax [1]: 43%"
13,–,Cc1sc2c(c1C)C(c1ccc(Cl)cc1)=N[C@@H](CC(=O)NCCCCCCC(=O)Nc1cccc3c1CN(C1CCC(=O)NC1=O)C3=O)c1nnc(C)n1-2 (some centres unmarked) [dBET43],2250,"Dmax [1, 5]: 13%"
–,3060,O=C1CCC(N2C(=O)c3cccc([N+](=O)[O-])c3C2=O)C(=O)N1 [Compound D-56],–,–
12,–,Cc1sc2c(c1C)C(c1ccc(Cl)cc1)=N[C@@H](CC(=O)NCCCCNC(=O)CNc1cccc3c1CN(C1CCC(=O)NC1=O)C3=O)c1nnc(C)n1-2 (some centres unmarked) [dBET35],372,"Dmax [1, 5]: 11.7%"
30,–,Cc1sc2c(c1C)C(c1ccc(Cl)cc1)=N[C@@H](CC(=O)NCCOCCOc1cccc3c1C(=O)N(C1CCC(=O)NC1=O)C3=O)c1nnc(C)n1-2 (some centres unmarked) [dBET27],–,"Conc@Emax [1]: 0.5 µM; Dmax [1, 5]: 30%; Emax [1]: 67.3%"
< 10,–,Cc1cnc(Nc2ccc(N3CCN(C(=O)CCCNC(=O)COc4cccc5c4C(=O)N(C4CCC(=O)NC4=O)C5=O)CC3)cc2)nc1Nc1cccc(S(=O)(=O)NC(C)(C)C)c1 (centres unmarked) [dBET20],14700,"Dmax [1, 5]: 7.04%"
–,–,Cc1sc2c(c1C)C(c1ccc(Cl)cc1)=N[C@@H](CC(=O)NCCCOCCCNC(=O)COc1cccc3c1C(=O)N(C1CCC(=O)NC1=O)C3=O)c1nnc(C)n1-2 (some centres unmarked) [dBET38],770,–
–,40.1,"O=C1CCC(N2C(=O)c3ccc(NCc4ccco4)cc3C2=O)C(=O)N1 [Compound D-28, 2-(2,6-dioxopiperidin-3-yl)-5-((furan-2-ylmethyl)amino)isoindoline-1,3-dione]",–,–
–,1120,COC(=O)COc1cccc2c1C(=O)N(C1CCC(=O)NC1=O)C2=O [Compound D-65],–,–
–,> 50000,CCOc1cccc2c1C(=O)N(C1CCC(=O)N(CC)C1=O)C2=O [Compound D-59],–,–
–,2130,O=C(O)COc1cccc2c1C(=O)N(C1CCC(=O)NC1=O)C2=O [Compound D-64],–,–
–,–,Cc1sc2c(c1C)C(c1ccc(Cl)cc1)=N[C@@H](CC(=O)NCCCCNC(=O)Cc1cccc3c1C(=O)N(C1CCC(=O)NC1=O)C3=O)c1nnc(C)n1-2 (some centres unmarked) [dBET36],725,–

SMILES,"Dmax [1, 4] [%]",IC50 [3] [nM],IC50 [2] [nM],also measured
COC(=O)C[C@@H]1N=C(c2ccc(Cl)cc2)c2c(sc(C)c2C(=O)NCCCCNC(=O)COc2cccc3c2C(=O)N(C2CCC(=O)NC2=O)C3=O)-n2c(C)nnc21 (some centres unmarked) [dBET25],42,–,6860,"Dmax [1, 5]: 41.7%"
O=C1CCC(N2C(=O)c3ccc([N+](=O)[O-])cc3C2=O)C(=O)N1 [Compound D-61],–,2660,–,–
COC(=O)C[C@@H]1N=C(c2ccc(Cl)cc2)c2c(sc(C)c2C(=O)NCCCCCCCCNC(=O)COc2cccc3c2C(=O)N(C2CCC(=O)NC2=O)C3=O)-n2c(C)nnc21 (some centres unmarked) [dBET26],40,–,7020,"Dmax [1, 5]: 39.9%"
"C[C@@]1(N2C(=O)c3cccc(O)c3C2=O)CCC(=O)NC1=O [Compound D-52, (R)-4-hydroxy-2-(3-methyl-2,6-dioxopiperidin-3-yl)isoindoline-1,3-dione]",–,39500,–,–
"C[C@]1(N2C(=O)c3cccc(O)c3C2=O)CCC(=O)NC1=O [Compound D-53, (S)-4-hydroxy-2-(3-methyl-2,6-dioxopiperidin-3-yl)isoindoline-1,3-dione]",–,56100,–,–
